Assays:
Beclin 1 = assay: K63-linkage specific ubiquitination of Beclin 1 in MEFs; assay type: cell-based, mouse; details: 6 h
From the text: Anti-K63-linkage specific polyubiquitin antibody was used to conduct secondary immunoprecipitation. Samples were then immunoblotted with anti-Beclin 1 antibody to measure the K63-linkage specific ubiquitination of Beclin 1.

[1] = test system: Htt-103Q, α-synuclein and tau expressing cells; assay: Misfolded protein accumulation and cell death in cell models (Htt-103Q, α-synuclein, tau); assay type: cell-based; details: 10 μM
Experimental: Nuclei were labeled with DAPI. The amount of Htt-Q103-EGFP aggregates per mm^2 was quantified using ImageJ. Scale bar is 100 μm. Cell viability was measured by CellTiter-Glo assay. Survival rate is compared with vehicle-treated cells. Mean ±s.d. from technical triplicates (n=3), representative of 3 independent experiments. One-way ANOVA, post hoc Dunnett's tests. ***P<0.001; n.s. not significant, (P=0.8556, 0.9195, 0.8613, 0.5687, 0.5304, 0.9998, 0.6029, 0.2821 (left to right)).
RFP-α-Synuclein was quantified by Fluorescence/Cell (RLU) by ImageJ.
Mean ±s.d. from technical triplicates (n=3), representative of 3 independent experiments. Two-way ANOVA, post hoc Bonferroni's tests. ***P<0.001; *P=0.0262, 0.0367 (left to right).
Mean ±s.d. from technical triplicates (n=3), representative of 3 independent experiments. Two-way ANOVA, post hoc Bonferroni's tests.

TRADD-N = molecular target: T1, TRADD-N (Homo sapiens, UniProt Q15628); assay: BIAcore SPR binding to TRADD-N; details: 25C, steady-state affinity
T1 construct: expression constructs encoding Flag-TRADD-N(1-179) and HA-TRADD-C(180-312); His (N); made in house
T1 sequence (Q15628 1-179): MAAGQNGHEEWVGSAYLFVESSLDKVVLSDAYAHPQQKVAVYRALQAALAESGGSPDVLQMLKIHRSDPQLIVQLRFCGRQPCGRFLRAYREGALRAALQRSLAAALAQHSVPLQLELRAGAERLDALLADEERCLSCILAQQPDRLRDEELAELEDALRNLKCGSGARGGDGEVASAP
Experimental: A series of concentrations of ICCB-19 (ranging from 0.3125 to 10 μM) was used to measure the binding kinetics, with TRADD-N immobilized on the CM5 chip.
The binding affinity between ICCB-19/Apt-1 and TRADD-N was analyzed at 25C on a BIAcore T200 machine with CM5 chips (GE Healthcare). PBS-P buffer (GE Healthcare) was used for all measurements. For surface plasmon resonance (SPR) measurements, Flag-tagged TRADD-N protein was purified from HEK293T cells by anti-Flag affinity gel and eluted by 3×Flag peptide. The protein was further purified by size exclusion chromatograph on a Superdex 75 column (GE Healthcare) in a buffer containing 20 mM imidazole (pH 6.6), 200 mM NaCl, 20 mM DTT. The protein was dialyzed into PBS and diluted to a final concentration of 40 μg/ml in NaOAc buffer (pH 4.5) before immobilization on CM5 chip. ˜5000 response units of protein were immobilized on the chip with a running buffer composed of PBS-P. Reference was used to normalize the response unit (RU) values of protein. A series of compound concentrations ranging from 0.3125 to 10 μM was tested at […] flow rate. The contact time is 100 s and dissociation time is 120 s. When the data collection was finished in each cycle, the sensor surface was regenerated with PBS-P buffer. DMSO solvent correction was performed following the BIAcore T200 Guide.

H4 cells = assay: Long-lived protein degradation assay; assay type: cell-based; details: 10 μM, 6 h
Experimental: The rates of long-lived protein turnover in H4 cells treated with indicated compounds (10 μM, 6 h); rapamycin as positive control. Values expressed as fold changes relative to normal control cells. Mean ±s.e.m. from 4 independent experiments (n=4). One-way ANOVA, post hoc Dunnett's test. **P=0.002, 0.0023 (left to right); *P=0.0229; n.s. not significant (P=0.8669).
H4 cells were cultured with L-[3,4,5-^3H(N)]-leucine (0.1 μCi/ml) (PerkinElmer Life Sciences) for 24 h and chased in media with nonradioactive leucine for 18 h to let the degradation of short-lived proteins happen. Then the media was changed and incubated for additional 6 h along with different compounds (10 μM Apt-1, 10 μM ICCB-19, 10 μM ICCB-19i, 1 μM rapamycin). The media were recovered and treated with 10% trichloroacetic acid to separate trichloroacetic acid-soluble (amino acids) and trichloroacetic acid-insoluble (proteins) fractions. The cells were completely dissolved with 1N NaOH. Radioactivity was measured with a liquid scintillation analyzer (PerkinElmer). Long-lived protein degradation was calculated by dividing trichloroacetic acid-soluble radioactivity in the media by total radioactivity detected in the cells and media. The values were expressed as changes in fold from the value obtained in control cells.

GST-TRADD-C = molecular target: T2, GST-TRADD-C (Homo sapiens, UniProt Q15628); assay: Thermal shift assay with GST-TRADD-C; assay type: binding; details: GST-TRADD-C 50 μM, compound 250 μM
T2 construct: cDNA encoding GST-tagged hTRADD (Full length or aa180-312); made in house; host or cells: mammalian cells (pEBG plasmid)
Experimental: To determine stability, purified proteins were made to a final concentration of […]. SYPRO Orange dye was added to the protein to make a final concentration of 2×. Compounds were added in the mix with a final concentration of 250 μM or as indicated and incubated at 4C for 1 h. The experiments were performed in 384-well plates specific for real-time PCR instrument with a total volume of 20 μl/well. The assay plate was covered with a sheet of optically clear adhesive to seal each well. The assay plate was centrifuged at 800×g for 2 min at 25C to collect solutions in the bottom of the well and remove bubbles. The assay plate was placed into the Applied Biosystems QuantStudio 6 Real-Time PCR System. The reaction was run from 25C, ramping up in increments of 0.05° C./s to a final temperature of 95C with fluorescence detection throughout the experiment to generate a dataset. Melting temperature of the protein (Tm) was determined by performing non-linear fitting of the dataset to a Boltzmann Sigmoidal curve in GraphPad Prism with the following equation: Y=Bottom+(Top-Bottom)/[1+exp(Tm-X/Slope)], where Y=fluorescence emission in arbitrary units; X=temperature; Bottom=baseline fluorescence at low temperature; Top=maximal fluorescence at top of the dataset; Slope=describes the steepness of the curve, with larger values denoting shallower curves.

T2 sequence (Q15628 180-312): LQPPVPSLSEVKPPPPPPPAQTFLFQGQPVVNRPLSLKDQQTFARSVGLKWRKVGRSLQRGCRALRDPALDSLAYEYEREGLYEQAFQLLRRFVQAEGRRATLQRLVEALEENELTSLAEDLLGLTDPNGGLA

For `CN1CCN=C1SC(C(=O)NC1CCCCCC1)c1ccccc1` (stereo not shown) [Compound 30], the “Beclin 1 K63 ubiquitination” value (Beclin 1) was “dramatically enhanced”, the “protein accumulation and cell death with Htt-103Q, α-synuclein, tau” value [1] was “reduced protein accumulation and cell death” and the Kd (TRADD-N) was 2.17 µM. For the same molecule, the “degradation of long-lived proteins” value (H4 cells) was “effectively induced” and the “binding to GST-TRADD-C” value (GST-TRADD-C) was “does not bind”.

For `O=C(CSC1=NCCN1)NC1CCCCCC1` [ICCB-19], the “Beclin 1 K63 ubiquitination” value (Beclin 1) was “dramatically enhanced”, the “protein accumulation and cell death with Htt-103Q, α-synuclein, tau” value [1] was “reduced protein accumulation and cell death” and the Kd (TRADD-N) was 2.3 µM. The “degradation of long-lived proteins” value (H4 cells) was “effectively induced” and the “binding to GST-TRADD-C” value (GST-TRADD-C) was “does not bind”.
